Test results taken from ChEMBL document CHEMBL4145686, “Discovery of a Potent and Selective Steroidal Glucocorticoid Receptor Antagonist (ORIC-101)” (J Med Chem, 2018).
pEC50, pIC50: −log10 of the molar value.

Assays:
Glucocorticoid receptor [1] = target: T1, Glucocorticoid receptor (Homo sapiens, UniProt P04150); assay: Antagonist activity at human GR expressed in CHO-K1 cells assessed as reduction in dexamethasone-induced response incubated for 20 hrs by luciferase reporter gene assay; type: cell-based
T1 sequence (P04150 whole entry): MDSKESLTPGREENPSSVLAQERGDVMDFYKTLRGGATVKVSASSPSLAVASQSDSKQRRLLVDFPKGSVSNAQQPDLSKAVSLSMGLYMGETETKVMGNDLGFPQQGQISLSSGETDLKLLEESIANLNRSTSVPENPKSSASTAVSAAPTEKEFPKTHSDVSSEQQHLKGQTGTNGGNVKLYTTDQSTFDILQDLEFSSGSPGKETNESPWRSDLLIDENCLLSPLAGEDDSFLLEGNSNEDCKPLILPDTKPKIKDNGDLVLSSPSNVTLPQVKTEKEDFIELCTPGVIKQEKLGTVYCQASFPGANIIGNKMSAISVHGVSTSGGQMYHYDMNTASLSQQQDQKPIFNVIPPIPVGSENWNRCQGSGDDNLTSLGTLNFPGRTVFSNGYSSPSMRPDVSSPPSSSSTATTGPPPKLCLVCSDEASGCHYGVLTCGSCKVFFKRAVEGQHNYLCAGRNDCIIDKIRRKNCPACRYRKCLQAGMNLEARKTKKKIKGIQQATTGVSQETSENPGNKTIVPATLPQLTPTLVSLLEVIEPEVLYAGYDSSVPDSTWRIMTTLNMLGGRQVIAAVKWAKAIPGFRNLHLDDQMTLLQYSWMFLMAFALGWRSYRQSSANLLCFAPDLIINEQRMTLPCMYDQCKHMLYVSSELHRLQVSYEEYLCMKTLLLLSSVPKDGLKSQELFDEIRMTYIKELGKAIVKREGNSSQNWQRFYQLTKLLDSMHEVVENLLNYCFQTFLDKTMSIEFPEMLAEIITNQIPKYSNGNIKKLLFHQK

Glucocorticoid receptor [2] = target: T1, Glucocorticoid receptor; assay: Agonist activity at human GR expressed in CHO-K1 cells incubated for 20 hrs by luciferase reporter gene assay; type: cell-based
[3] = target: T2, glucocorticoid receptor (GR) (Homo sapiens, UniProt P04150); assay: Agonist activity at human GR expressed in CHO-K1 cells incubated for 20 hrs by luciferase reporter gene assay relative to dexamethasone; type: cell-based; conditions: CHO-K1 cells expressing human GR
T2 sequence (P04150 whole entry): T1 sequence (P04150 whole entry)

Androgen receptor = target: T3, Androgen receptor (Homo sapiens, UniProt P10275); assay: Agonist activity at AR (unknown origin) expressed in human LNCaP cells incubated for 20 hrs by luciferase reporter gene assay; type: cell-based
T3 sequence (P10275 whole entry): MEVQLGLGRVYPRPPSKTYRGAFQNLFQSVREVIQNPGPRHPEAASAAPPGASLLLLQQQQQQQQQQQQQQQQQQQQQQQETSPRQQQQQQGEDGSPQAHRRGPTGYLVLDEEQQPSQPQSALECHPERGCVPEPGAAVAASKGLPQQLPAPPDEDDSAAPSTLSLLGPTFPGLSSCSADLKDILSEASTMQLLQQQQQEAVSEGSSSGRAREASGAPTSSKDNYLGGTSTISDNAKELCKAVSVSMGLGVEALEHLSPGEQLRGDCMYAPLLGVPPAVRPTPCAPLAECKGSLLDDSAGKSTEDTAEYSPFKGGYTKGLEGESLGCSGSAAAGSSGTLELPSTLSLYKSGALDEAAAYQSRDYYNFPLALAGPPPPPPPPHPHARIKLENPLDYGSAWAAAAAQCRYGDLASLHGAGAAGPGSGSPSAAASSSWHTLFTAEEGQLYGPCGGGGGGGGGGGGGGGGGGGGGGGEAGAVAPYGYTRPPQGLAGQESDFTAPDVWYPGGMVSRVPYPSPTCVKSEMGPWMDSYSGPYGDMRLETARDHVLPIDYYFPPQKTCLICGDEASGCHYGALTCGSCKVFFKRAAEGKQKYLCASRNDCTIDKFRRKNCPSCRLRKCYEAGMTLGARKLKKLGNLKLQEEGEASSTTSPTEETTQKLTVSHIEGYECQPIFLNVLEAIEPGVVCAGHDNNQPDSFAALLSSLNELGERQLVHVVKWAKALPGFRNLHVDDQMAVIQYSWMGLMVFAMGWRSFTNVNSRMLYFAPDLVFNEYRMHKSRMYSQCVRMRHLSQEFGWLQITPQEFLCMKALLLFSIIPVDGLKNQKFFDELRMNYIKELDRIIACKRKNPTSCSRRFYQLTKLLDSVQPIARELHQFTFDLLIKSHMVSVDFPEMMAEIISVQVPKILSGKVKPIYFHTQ

androgen receptor (AR) = target: T4, androgen receptor (AR) (Homo sapiens, UniProt P10275); assay: Agonist activity at AR (unknown origin) expressed in human LNCaP cells incubated for 20 hrs by luciferase reporter gene assay relative to mifepristone; type: cell-based; conditions: human LNCaP cells expressing AR
T4 sequence (P10275 whole entry): T3 sequence (P10275 whole entry)

[4] = Clearance in rat at 0.5 mg/kg, iv; type: ADME, organism-based; conditions: in vivo
[5] = Volume of distribution at steady state in rat at 0.5 mg/kg, iv; type: ADME, organism-based; conditions: in vivo, read-out: Vdss
[6] = Half life in rat at 0.5 mg/kg, iv; type: ADME, organism-based; conditions: in vivo
[7] = Oral bioavailability in rat at 5 mg/kg; type: ADME, organism-based; conditions: in vivo

Row | Structure (SMILES) | pIC50 (Glucocorticoid receptor [1]) | pEC50 (Glucocorticoid receptor [2]) | Emax at 20 h [3] [%] | pEC50 (Androgen receptor) | Emax at 20 h (androgen receptor (AR)) [%] | clearance [4] [mL/min/kg] | Vd [5] [L/kg] | half-life [6] [h] | bioavailability [7] [%]
1 | CC(C)(C)C#C[C@]1(O)CC[C@H]2[C@@H]3CCC4=CC(=O)CCC4=C3[C@@H](c3ccc(N4CCOCC4)cc3)C[C@@]21C | 7.88 | < 5.60 | 1.5 | < 5.60 | 18.7 | – | – | – | –
2 | CC(C)(C)C#C[C@]1(O)CC[C@H]2[C@@H]3CCC4=CC(=O)CCC4=C3[C@@H](c3ccc(N4CCS(=O)(=O)CC4)cc3)C[C@@]21C | 7.78 | < 5.60 | 1.8 | < 5.60 | 23 | – | – | – | –
3 | CC#C[C@]1(O)CC[C@H]2[C@@H]3CCC4=CC(=O)CCC4=C3[C@@H](CC)C[C@@]21C | < 5.30 | 7.24 | 36 | < 5.60 | 47 | – | – | – | –
4 | CCc1ccc([C@H]2C[C@@]3(C)[C@@H](CC[C@@]3(O)C#CC(C)(C)C)[C@@H]3CCC4=CC(=O)CCC4=C32)cc1 | 7.76 | < 5.60 | 1.5 | < 5.60 | 20 | 6.83 | 1.7 | 3.4 | 0
5 | CC#C[C@]1(O)CC[C@H]2[C@@H]3CCC4=CC(=O)CCC4=C3[C@@H](c3ccccc3)C[C@@]21C | 7.85 | 7.76 | 7 | < 5.60 | 27 | – | – | – | –
6 | CN(C)c1ccc([C@H]2C[C@@]3(C)[C@@H](CC[C@@]3(O)C#CC(C)(C)C)[C@@H]3CCC4=CC(=O)CC[C@@H]4[C@H]32)cc1 | 8.25 | < 5.60 | 2.2 | 6.65 | 22 | – | – | – | –
7 | CC#C[C@]1(O)CC[C@H]2[C@@H]3CCC4=CC(=O)CCC4=C3[C@@H](c3cccc(N(C)C)c3)C[C@@]21C | 7.19 | < 5.60 | 1.5 | < 5.60 | 5.8 | – | – | – | –
8 | Cc1ccc([C@H]2C[C@@]3(C)[C@@H](CC[C@@]3(O)C#CC(C)(C)C)[C@@H]3CCC4=CC(=O)CCC4=C32)cc1 | 7.79 | < 5.60 | 1.5 | < 5.60 | 16 | – | – | – | –
9 | CN(C)c1ccc([C@H]2C[C@@]3(C)[C@@H](CC[C@@]3(O)C#CC(F)(F)F)[C@@H]3CCC4=CC(=O)CCC4=C32)cc1 | 7.95 | < 5.60 | 2.4 | 7.27 | 117 | – | – | – | –
10 | CCC#C[C@]1(O)CC[C@H]2[C@@H]3CCC4=CC(=O)CCC4=C3[C@@H](c3ccc(N(C)C)cc3)C[C@@]21C | 8.07 | < 5.60 | 2.1 | 7.52 | 101 | – | – | – | –
11 | CC(C)C#C[C@]1(O)CC[C@H]2[C@@H]3CCC4=CC(=O)CCC4=C3[C@@H](c3ccc(N(C)C)cc3)C[C@@]21C | 7.59 | < 5.60 | 1.8 | < 5.60 | 50 | – | – | – | –
12 | CC(C)c1ccc([C@H]2C[C@@]3(C)[C@@H](CC[C@@]3(O)C#CC(C)(C)C)[C@@H]3CCC4=CC(=O)CCC4=C32)cc1 | 7.80 | < 5.60 | 1.5 | < 5.60 | 25 | – | – | – | –
13 | CN(C)c1cccc([C@H]2C[C@@]3(C)[C@@H](CC[C@@]3(O)C#CC(C)(C)C)[C@@H]3CCC4=CC(=O)CCC4=C32)c1 | 6.69 | < 5.60 | 1.3 | < 5.60 | 7.5 | – | – | – | –
14 | CC#C[C@]1(O)CC[C@H]2[C@@H]3CCC4=CC(=O)CCC4=C3[C@@H](C3CCCCC3)C[C@@]21C | 7.74 | < 5.60 | 9.3 | < 5.60 | 26 | – | – | – | –
15 | CN(C)c1cc(F)c([C@H]2C[C@@]3(C)[C@@H](CC[C@@]3(O)C#CC(C)(C)C)[C@@H]3CCC4=CC(=O)CCC4=C32)c(F)c1 | 7.91 | < 5.60 | 1.3 | < 5.60 | 11 | – | – | – | –
16 | Cc1cc([C@H]2C[C@@]3(C)[C@@H](CC[C@@]3(O)C#CC(C)(C)C)[C@@H]3CCC4=CC(=O)CCC4=C32)ccc1N(C)C | 7.55 | < 5.60 | 1.2 | < 5.60 | 17 | – | – | – | –
17 | CN(C)c1c(F)cc([C@H]2C[C@@]3(C)[C@@H](CC[C@@]3(O)C#CC(C)(C)C)[C@@H]3CCC4=CC(=O)CCC4=C32)cc1F | 7.37 | < 5.60 | 1.3 | < 5.60 | 8.8 | – | – | – | –
18 | COc1ccc([C@H]2C[C@@]3(C)[C@@H](CC[C@@]3(O)C#CC(C)(C)C)[C@@H]3CCC4=CC(=O)CCC4=C32)cc1 | 7.78 | < 5.60 | 1.1 | < 5.60 | 9.8 | – | – | – | –
19 | CC#C[C@]1(O)CC[C@H]2[C@@H]3CCC4=CC(=O)CCC4=C3[C@@H](c3ccc(C(C)C)cc3)C[C@@]21C | 8.71 | < 5.60 | 3.1 | 7.89 | 198 | – | – | – | –
20 | COc1cc([C@H]2C[C@@]3(C)[C@@H](CC[C@@]3(O)C#CC(C)(C)C)[C@@H]3CCC4=CC(=O)CCC4=C32)ccc1N(C)C | 7.32 | < 5.60 | 1 | < 5.60 | 5.7 | – | – | – | –
